Source: US7381724B2, “Optically active 5H-pyrrolo[3,4-b]pyrazine derivative, its preparation and pharmaceutical compositions containing same” (Sepracor Inc., priority 1991, dated 2008)

Tests used:
[1] = system: pentetrazol-induced convulsions; test: test of antagonist activity with respect to pentetrazol-induced convulsions; type: in vivo; settings: relative to racemic zopiclone; technique of Everett and Richards
writhing reflex = writhing reflex test in mice; type: in vivo; settings: relative to racemic zopiclone, technique of Zbinden and Randall
[2] = system: central benzodiazepine receptor sites; test: test of affinity for central benzodiazepine receptor sites; type: binding; settings: relative to racemic zopiclone; technique of Blanchard and Julou
mice = test: acute oral toxicity (LD50) in mice; settings: for toxicity compared with the racemate: relative to racemic zopiclone
[3] = acute oral toxicity (LD50) in mice; settings: mouse, in vivo, po
animals = test: pharmacological properties in animals; type: in vivo

Compound | potency of action, antagonist activity with respect to pentetrazol-induced convulsions [1] | potency of action, writhing reflex test (writhing reflex) | potency of action, affinity for central benzodiazepine receptor sites [2] | toxicity compared with the racemate (mice) | LD50 [3] [mg/kg] | properties displayed in animals (animals) | toxicity (LD50) (mice; administered orally to mice) [mg/kg]
CN1CCN(C(=O)O[C@@H]2c3nccnc3C(=O)N2c2ccc(Cl)cn2)CC1 (single isomer, unassigned) [laevorotatory isomer, reference compound] | almost inactive | almost inactive | almost inactive | more toxic than the racemate |  |  | 
CN1CCN(C(=O)OC2c3nccnc3C(=O)N2c2ccc(Cl)cn2)CC1 (racemic) [zopiclone, 6-(5-chloro-2-pyridyl)-5-[(4-methyl-1-piperazinyl)carbonyloxy]-7-oxo-6,7-dihydro-5H-pyrrolo[3,4-b]pyrazine, reference compound] |  |  |  |  | ~850 |  | 
CN1CCN(C(=O)O[C@H]2c3nccnc3C(=O)N2c2ccc(Cl)cn2)CC1 (single isomer, unassigned) [dextrorotatory isomer] | approximately twice as active | approximately twice as active | approximately twice as active | lower toxicity than that of the racemate |  | hypnotic, sedative, anxiolytic, muscle-relaxant and anticonvulsant properties | ~1500
